Legend:
BCRP = target: T1, BCRP (Homo sapiens, UniProt Q9UNQ0); experiment: Bidirectional transport in MDCK-II cells expressing BCRP; type: in vitro ADME
T1 construct: expressed in transfected cells; host or cells: MDCK-II
T1 sequence (Q9UNQ0 1-655): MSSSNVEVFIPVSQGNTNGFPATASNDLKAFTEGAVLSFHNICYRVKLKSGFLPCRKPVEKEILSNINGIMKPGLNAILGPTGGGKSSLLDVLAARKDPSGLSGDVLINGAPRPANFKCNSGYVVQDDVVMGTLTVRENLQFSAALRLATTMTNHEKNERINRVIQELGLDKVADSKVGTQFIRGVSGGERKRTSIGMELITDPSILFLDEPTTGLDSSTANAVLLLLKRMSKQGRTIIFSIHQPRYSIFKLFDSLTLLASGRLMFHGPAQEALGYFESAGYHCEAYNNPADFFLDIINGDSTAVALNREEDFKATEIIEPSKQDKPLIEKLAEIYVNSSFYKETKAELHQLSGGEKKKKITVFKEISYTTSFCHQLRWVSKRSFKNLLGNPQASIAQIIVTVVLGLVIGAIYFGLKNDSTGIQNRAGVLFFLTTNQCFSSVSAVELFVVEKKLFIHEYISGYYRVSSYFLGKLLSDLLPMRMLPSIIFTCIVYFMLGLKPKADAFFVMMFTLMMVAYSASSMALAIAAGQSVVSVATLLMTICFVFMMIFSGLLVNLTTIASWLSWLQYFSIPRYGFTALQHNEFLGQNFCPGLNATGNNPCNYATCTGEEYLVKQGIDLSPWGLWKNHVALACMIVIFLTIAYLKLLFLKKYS

CYP2b1 mRNA = experiment: CYP mRNA expression in cultured rat hepatocytes, CYP2b1; type: in vitro ADME; conditions: 0.3 to 100 nM
CYP2C8 = CYP2C8 (Homo sapiens, UniProt P10632); experiment: Depletion by recombinant CYP enzyme, CYP2C8; type: in vitro ADME; design: from tissue; host or cells: pooled human liver microsomes; conditions: recombinant 2C8
CYP2C8, sequence (P10632 whole entry): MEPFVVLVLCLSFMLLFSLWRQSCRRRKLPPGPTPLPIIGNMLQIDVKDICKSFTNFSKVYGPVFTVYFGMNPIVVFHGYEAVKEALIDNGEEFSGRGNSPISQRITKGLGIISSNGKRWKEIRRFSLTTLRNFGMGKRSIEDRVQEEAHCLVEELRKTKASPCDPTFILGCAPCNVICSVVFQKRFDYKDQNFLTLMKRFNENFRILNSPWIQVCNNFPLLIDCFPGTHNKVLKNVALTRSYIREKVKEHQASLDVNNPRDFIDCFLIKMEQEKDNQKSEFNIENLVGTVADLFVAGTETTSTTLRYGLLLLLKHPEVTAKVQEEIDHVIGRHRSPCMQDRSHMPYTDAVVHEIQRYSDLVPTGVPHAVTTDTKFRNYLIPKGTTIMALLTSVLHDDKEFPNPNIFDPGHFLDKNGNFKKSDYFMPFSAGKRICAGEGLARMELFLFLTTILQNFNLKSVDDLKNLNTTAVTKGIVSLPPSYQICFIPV

CYP2D6 [1] = target: T2, CYP2D6 (Homo sapiens, UniProt P10635); experiment: Depletion by recombinant CYP enzyme, CYP2D6; type: in vitro ADME; design: from tissue; host or cells: pooled human liver microsomes; conditions: recombinant 2D6
T2 sequence (P10635 whole entry): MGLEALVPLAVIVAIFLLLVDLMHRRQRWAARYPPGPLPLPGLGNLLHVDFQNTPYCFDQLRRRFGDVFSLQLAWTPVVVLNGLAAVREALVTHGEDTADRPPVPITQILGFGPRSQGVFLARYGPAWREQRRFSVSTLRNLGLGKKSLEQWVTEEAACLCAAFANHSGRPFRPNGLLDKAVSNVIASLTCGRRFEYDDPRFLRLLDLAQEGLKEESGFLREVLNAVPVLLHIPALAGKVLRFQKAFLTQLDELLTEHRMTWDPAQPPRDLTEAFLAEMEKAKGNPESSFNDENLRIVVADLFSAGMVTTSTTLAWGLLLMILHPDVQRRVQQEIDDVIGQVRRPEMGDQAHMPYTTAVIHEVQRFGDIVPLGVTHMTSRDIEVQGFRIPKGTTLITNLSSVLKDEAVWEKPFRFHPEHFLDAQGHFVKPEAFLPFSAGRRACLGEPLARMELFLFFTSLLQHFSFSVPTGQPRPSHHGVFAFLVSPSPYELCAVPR

CYP2C9 = CYP2C9 (Homo sapiens, UniProt P11712); experiment: CYP enzyme inhibition in pooled human liver microsomes, CYP2C9; conditions: for inhibition at 30 µM: human, microsomes, Enzyme activity (% inhibition), CYP2C9, probe Diclofenac
CYP2C9, sequence (P11712 whole entry): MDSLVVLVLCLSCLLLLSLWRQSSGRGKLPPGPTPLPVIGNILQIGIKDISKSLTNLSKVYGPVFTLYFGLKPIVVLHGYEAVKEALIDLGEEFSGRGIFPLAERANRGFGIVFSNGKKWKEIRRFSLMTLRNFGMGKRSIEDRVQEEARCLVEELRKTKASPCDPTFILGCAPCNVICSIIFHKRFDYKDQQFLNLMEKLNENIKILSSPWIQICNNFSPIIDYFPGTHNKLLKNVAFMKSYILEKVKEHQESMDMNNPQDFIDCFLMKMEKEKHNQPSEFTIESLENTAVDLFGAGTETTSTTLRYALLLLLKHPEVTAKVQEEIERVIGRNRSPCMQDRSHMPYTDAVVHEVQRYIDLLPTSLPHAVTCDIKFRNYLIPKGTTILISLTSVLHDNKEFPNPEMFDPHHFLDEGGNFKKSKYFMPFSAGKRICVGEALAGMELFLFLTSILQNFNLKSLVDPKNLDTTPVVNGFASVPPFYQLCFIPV

CYP2D6 [2] = target: T2, CYP2D6; experiment: CYP enzyme inhibition in pooled human liver microsomes, CYP2D6; conditions: for inhibition at 30 µM: human, microsomes, Enzyme activity (% inhibition), CYP2D6, probe Dextromethorphan
[3] = human, read-out: Papp A→B, in transporter cells
[4] = human, read-out: Papp B→A, in transporter cells
[5] = PHLM, concentrations up to 30 μM
[6] = 30 Minutes Pre-incubation with NADPH, PHLM
[7] = 30 Minutes Pre-incubation without NADPH, PHLM

SMILES: COC[C@H](NC(=O)c1ccn(S(C)(=O)=O)c1)C(=O)Nc1nc(-c2cccc(N3C[C@@H](C)O[C@@H](C)C3)n2)cs1 [compound of formula (I), N-((S)-1-((4-(6-(cis-2,6-dimethylmorpholino)pyridin-2-yl)thiazol-2-yl)amino)-3-methoxy-1-oxopropan-2-yl)-1-(methylsulfonyl)-1H-pyrrole-3-carboxamide]
- BCRP substrate status (BCRP; MDCK-II cells expressing BCRP): substrate
- Papp A→B at 1 μM (BCRP; [3]): 6.15 ×10⁻⁶ cm/s
- Papp A→B at 10 μM (BCRP; [3]): 16.5 ×10⁻⁶ cm/s
- Papp A→B at 50 μM (BCRP; [3]): 22.4 ×10⁻⁶ cm/s
- Papp B→A at 1 μM (BCRP; [4]): 24.3 ×10⁻⁶ cm/s
- Papp B→A at 10 μM (BCRP; [4]): 25.2 ×10⁻⁶ cm/s
- Papp B→A at 50 μM (BCRP; [4]): 18.5 ×10⁻⁶ cm/s
- concentrations at which CYP2b1 mRNA expression was decreased ≥50% (CYP2b1 mRNA): ≥ 10 nM
- % Remaining of Compound of Formula (I) (CYP2C8; 0.1 μM): 81.0%
- % Remaining of Compound of Formula (I) (CYP2C8; 1 μM): 95.4%
- % Remaining of Compound of Formula (I) (CYP2D6 [1]; 0.1 μM): 85.0%
- % Remaining of Compound of Formula (I) (CYP2D6 [1]; 1 μM): 93.5%
- IC50 (CYP2C9): > 30 µM
- direct inhibitory activity (% inhibition) toward CYP2C9 (CYP2C9; [5]): < 50%
- inhibition at 30 µM (CYP2C9; [6]): 43.5%
- inhibition at 30 µM (CYP2C9; [7]): 29.5%
- inhibition at 30 µM (CYP2C9; No Pre-incubation, PHLM): 47.1%
- IC50 (CYP2D6 [2]): > 30 µM
- direct inhibitory activity (% inhibition) toward CYP2D6 (CYP2D6 [2]; [5]): < 50%
- inhibition at 30 µM (CYP2D6 [2]; [6]): 9.6%
- inhibition at 30 µM (CYP2D6 [2]; [7]): 11.5%
- inhibition at 30 µM (CYP2D6 [2]; No Pre-incubation, PHLM): 13.2%
